“Also recorded” adds a separate entry of the source. Peptide text beside a SMILES is read from it. * marks the point of attachment. X1 = O=C(CCc1ccc(O)c(O)c1)NCCCC[C@H](NC(=O)CCc1ccc(O)c(O)c1)C(=O)*; FITC = O=C1OC2(c3ccc(O)cc3Oc3cc(O)ccc32)c2ccc(NC(=S)*)cc21; Dihydrocaffeoyl = O=C(CCc1ccc(O)c(O)c1)*
Key:
[1] = Fluorescence intensity of FITC-labeled OGP-Cat immobilized on TiO2; type: physicochemical; conditions: 3 days in 25 mM HEPES buffer pH 7.4
Experimental: Fluorescein-labeled modular peptide (FITC-labeled OGP-Cat) was also synthesized to visualize the presence of the immobilized peptides on TiO2 surface using fluorescence microscopy. (See, Example 13). After immobilization of FITC-labeled OGP-Cat onto TiO2 surfaces, the fluorescence intensity was much stronger compared to the control sample, which incubating TiO2-coated substrates in a solution of FITC at identical concentration. […] See, FIGS. 10A-B.
To study the stability of sequestered modular peptides on targeting surfaces, the modular peptide immobilized TiO2 substrates were immersed in 25 mM HEPES buffer (pH=7.4 at 25° C.) and incubated for different durations. The mean intensity of FITC-labeled OGP-Cat immobilized TiO2 substrates after incubation was quantified to detect the diffusion of FITC-labeled OGP-Cat into surrounding solution. (See FIG. 11). […] It is believed that the mismatch of retention time for the monovalent ligands may be attributed to the sensitivity difference of XPS and fluorescence microscopy. […]
The florescence intensity of FITC-OGP-(Cat)n (n=1, 2, and 4) on TiO2, Fe2O3, Fe3O4, ZrO2, CeO2, SiO2, and Au substrates was viewed with an inverted IX81 Microscope (Olympus, Center Valley, Pa.) with mercury bulb excitation and the appropriate filters. […] The mean intensity was calculated based on at least 10 randomly chosen sites observed under the same conditions.

[2] = Live/Dead viability assay; type: cell-based; conditions: mouse; immobilized on TiO2 substrates, cultured 24 hours
Experimental: The toxicity of the dendron of the embodiments of the present invention was tested using mouse calvarial pre-osteoblast cells ([…]) cells. The MC3T3-E1 cells were seeded on the TiO2 substrates with immobilized FITC-labeled OGP-Cat and cultured for 24 hours. […] The cells were well spread on the peptide-bearing surfaces, which is a consistent with an adherent proliferating cell population. See also, Example 17.
MC3T3-E1 mouse preosteoblast (passage 17) were expanded and cultured in α-MEM media (Gibco, Life Technologies, Grand Island, N.Y.) supplemented with 10% fetal bovine serum (FBS) (Invitrogen), 100 units/mL penicillin (Invitrogen), and 100 μg/mL streptomycin (Invitrogen) at 37° C. in a 5% CO2 humidified atmosphere. The cells were subcultured every 3 days in the presence of 0.25% (w/v) trypsin and 0.5% (w/v) ethylenediaminetetraacetic acid tetrasodium salt (EDTA) solution. […]
Viability of the cell culture of Example 16 above was evaluated using a Live/Dead viability/cytotoxicity kit (Invitrogen, UK). […] The staining solution was removed and the samples were viewed under the IX81 fluorescence microscope (Olympus) with 494 nm (green, Calcein) and 528 nm (red, EthD-1) emission filters. For quantitative analysis a total of 250 cells were counted from each sample over 25 randomly chosen areas and the viable and non-viable cells counts were recorded.

[3] = QCM-d adsorption of catechol-functionalized dendrons to TiO2 surface; type: binding; conditions: for concentration to obtain ~6 Hz frequency shift: TiO2, 25° C., pH 7.4; for apparent disassociation constant Kd: 25° C., pH 7.4, single-site specific binding model; for maximum adsorption (Bmax): single-site specific binding model
Experimental: The adsorption processes of all molecules to TiO2 surfaces at 25° C. and pH 7.4 were monitored by quartz crystal microbalance with dissipation (QCM-d). (See Example 7). Multivalent binding effects that enhanced the binding affinity were clear. In FIG. 2, to obtain a similar level of adsorption, ˜6 Hz frequency shift, the concentration of monovalent ligand, OGP-Cat, was 13 μM, while that of tetravalent ligand, OGP-(Cat)4 and OGP-PEG-(Cat)4, was 0.32 and 0.16 μM, respectively due to the mass differences. A much smaller amount of sample (˜80-fold less) was needed for the tetravalent ligand OGP-PEG-(Cat)4 compared with the monovalent ligand OGP-Cat to achieve the same level (mass) of surface adsorption. […] Under similar conditions, the monovalent ligand was partially washed away. The adsorption kinetics were recorded by QCM-d, with regard to OGP-PEG-(Cat)4, and 2 hours were needed to reach the equilibrium state at a concentration of 0.16 μM.
To quantitatively compare the binding affinities of the multivalent binding ligands, their adsorption properties at several different concentrations were measured. The solutions at higher concentrations were switched to flow above the sensor, until the adsorption of previous solution at lower concentration reached the equilibrium state (the change in frequency shift is smaller than the signal fluctuation, 0.05 Hz/min), taking OGP-Cat as an example shown in FIG. 3A. In these experiments, the adsorption of OGP-Cat onto TiO2 surface at different concentrations was measured by QCM-d, while the concentration was increased sequentially (c1=0.068 μmol/L, c2=0.34 μmol/L, c3=1.8 μmol/L, c4=7.3 μmol/L, c5=13 μmol/L, and c6=34 μmol/L). At last the adsorbed layer was washed with 25 mM HEPES buffer. The flow rate was 0.150 mL/min. Three independent measurements (Sensors 1-3) are shown on FIG. 3A. The corresponding frequency shift was calculated using Sauerbrey Equation to get the adsorbed area mass. The adsorption isotherm of each molecule was drawn and fit with a single-site specific binding model to get the apparent disassociation constant (Kd) and maximum adsorption (Bmax) of OGP-Cat as in FIG. 3B and others in FIGS. 4A-F from the adsorbed area mass at the respective concentrations.
(§1) Quartz crystal microbalance with dissipation (QCM-d) was used to determine the binding isotherm for OGP-(Cat)4 on TiO2, Fe2O3, Fe3O4, ZrO2, CeO2, SiO2, and Au substrates. The AT cut sensors were purchased from Biolin Scientific AB (Sweden) and cleaned before use according to the protocol provided by the company. The sensor was excited at 5 MHz as its fundamental frequency. The frequency shift (Δf) and dissipation (ΔD) were measured at 3rd, 5th, 7th, 9th, 11th and 13th overtones. 25 mM HEPES buffer (pH=7.40 at 25° C.) was used as the flow medium. Sensors were mounted in the modules immediately after cleaning. […] Then solutions of catechol-bearing peptide (OGP-(Cat)4) in HEPES buffer were introduced and the flow continued until the adsorption reached its equilibrium state. If necessary, solutions at higher concentrations were introduced sequentially. Lastly, HEPES buffer was introduced again to wash the adsorbed layer. Three independent measurements were done simultaneously. The results are reported on FIG. 5.
The QCM-d measurements in Example 7 above may be used to calculate the adsorbed area mass. The adsorbed area mass was proportional to the frequency shift (Δf) and calculated by the Sauerbrey Equation. Sauerbrey Equation is
[formula] where C is the mass sensitivity constant with the value of 17.7 ng Hz^−1 cm^−2 for 5 MHz fundamental frequency crystal, n is the frequency overtone number, and n=7 was chosen to calculate the adsorption area mass. As long as the adsorbed mass is small compared to the crystal, sufficiently thin, and has limited viscoelastic coupling with the surrounding medium (ΔD<1×10^−6 per 10 Hz), this relationship is valid. […]

[4] = QCM-d adsorption of OGP-(Cat)4 to CeO2; type: binding; conditions: c=1 μM
Experimental: (§2) The adsorption of tetravalent binding ligand OGP-(Cat)4 to a wide range of materials was tested to identify common features of materials to which the catechol-bearing ligands of various embodiments of the present invention strongly bind. […] While not wanting to be bound by theory, it is believed that this is because the coordination bond between catechol and metals with empty d-orbitals or f-orbitals provides a stronger interaction than Hydrogen bonding. […] Therefore, it is believed that OGP-(Cat)4 will be highly useful for the functionalization of transition metal oxides.
as §1, with “If necessary, solutions at higher concentrations were introduced sequentially. Lastly, HEPES buffer was introduced again to wash the adsorbed layer. Three independent measurements were done simultaneously. The results are reported on FIG. 5.” left out

[5] = XPS of immobilized modular peptides on TiO2 substrates and retention in HEPES buffer; type: physicochemical; conditions: HEPES buffer pH 7.4
Experimental: Immobilization of peptides onto TiO2 surface was accomplished by immersing the TiO2 substrates into the corresponding modular peptide solution and incubating it overnight at ambient temperature. The successful immobilization of OGP-Cat and OGP-(Cat)4 onto TiO2-coated substrates were confirmed by XPS. Nitrogen is the element contained only in the modular peptides while not in bare TiO2, as shown in the XPS survey scan of bare TiO2 and OGP-(Cat)4 in FIG. 9A. […] It is noted that the N1s peaks in FIG. 9B are normalized to the highest intensity (O1s) for comparison of the signal to noise ratio.
To quantify the increase in nitrogen due to adsorption of OGP-Cat and OGP-(Cat)4, the nitrogen content (N1s) was normalized with Ti content (Ti2p), and compared with TiO2 substrate after incubation in HEPES buffer overnight (TiO2 as control), as show in Table 2, below.
To study the stability of sequestered modular peptides on targeting surfaces, the modular peptide immobilized TiO2 substrates were immersed in 25 mM HEPES buffer (pH=7.4 at 25° C.) and incubated for different durations. The mean intensity of FITC-labeled OGP-Cat immobilized TiO2 substrates after incubation was quantified to detect the diffusion of FITC-labeled OGP-Cat into surrounding solution. (See FIG. 11). […]

[6] = QCM-d adsorption of OGP-(Cat)4 to gold; type: binding
Experimental: as §2
as §1, with “If necessary, solutions at higher concentrations were introduced sequentially. Lastly, HEPES buffer was introduced again to wash the adsorbed layer. Three independent measurements were done simultaneously. The results are reported on FIG. 5.” left out

[7] = QCM-d adsorption of OGP-(Cat)4 to hydroxyapatite; type: binding; conditions: c=10 μM
Experimental: as §2

[8] = QCM-d adsorption of OGP-(Cat)4 to Al2O3; type: binding; conditions: c=10 μM
Experimental: as §2

[9] = QCM-d adsorption of OGP-(Cat)4 to ZrO2; type: binding; conditions: c=1 μM
Experimental: as §2
as §1, with “If necessary, solutions at higher concentrations were introduced sequentially. Lastly, HEPES buffer was introduced again to wash the adsorbed layer. Three independent measurements were done simultaneously. The results are reported on FIG. 5.” left out

[10] = QCM-d adsorption of OGP-(Cat)4 to SiO2; type: binding
Experimental: as §2
as §1, with “If necessary, solutions at higher concentrations were introduced sequentially. Lastly, HEPES buffer was introduced again to wash the adsorbed layer. Three independent measurements were done simultaneously. The results are reported on FIG. 5.” left out

[11] = QCM-d adsorption of OGP-(Cat)4 to iron oxide; type: binding; conditions: c=1 μM
Experimental: as §2
as §1, with “If necessary, solutions at higher concentrations were introduced sequentially. Lastly, HEPES buffer was introduced again to wash the adsorbed layer. Three independent measurements were done simultaneously. The results are reported on FIG. 5.” left out

Kd ([3]; TiO2 surface) | apparent disassociation constant Kd ([3]; TiO2 surface) | binding to TiO2 ([3]; c=1 μM) | coverage of binding sites / maximum adsorption on TiO2 ([3]; solution at 100×Kd (2.8 μM) or Kd (28 nmol/L)) | binding to CeO2 [4] | incubation time after which decrease of N1s signal was detected [5] | binding to ZrO2 [9] | binding to iron oxide [11] | Structure (SMILES) | mean fluorescence intensity after incubation [1] | viability at 24 h [2] | concentration to obtain ~6 Hz frequency shift [3] | maximum adsorption (Bmax) ([3]; TiO2 surface) | enhancement parameter β = Ka,multi/Ka,mono ([3]; multivalent vs monovalent ligand within set with or without PEG linkage) | adsorption to gold ([6]; c=1 μM) | adsorption to Au ([6]; c=10 μM) | adsorption to hydroxyapatite (HA) [7] | adsorption to Al2O3 [8] | adsorption to SiO2 ([10]; c=1 μM) | adsorption to SiO2 ([10]; c=10 μM)
– | – | – | – | – | – | – | – | O=C(O)CNC(=O)CNC(=O)[C@H](Cc1ccccc1)NC(=O)CNC(=O)[C@H](Cc1ccc(O)cc1)NC(=O)[C@H](CCCCNC(=S)Nc1ccc2c(c1)C(=O)OC21c2ccc(O)cc2Oc2cc(O)ccc21)NC(=O)CCc1ccc(O)c(O)c1 [FITC-labeled OGP-Cat] (Dihydrocaffeoyl-K(FITC)YGFGG-OH) | deceased by about a half | > 98% | – | – | – | – | – | – | – | – | –
31 ± 3 nM | 31 ± 3 nM | strongest binding | 99% | strongest binding | 14 days | strongest binding | strong binding | O=C(O)CNC(=O)CNC(=O)[C@H](Cc1ccccc1)NC(=O)CNC(=O)[C@H](Cc1ccc(O)cc1)NC(=O)[C@H](CCCCNC(=O)[C@H](CCCCNC(=O)CCc1ccc(O)c(O)c1)NC(=O)CCc1ccc(O)c(O)c1)NC(=O)[C@H](CCCCNC(=O)CCc1ccc(O)c(O)c1)NC(=O)CCc1ccc(O)c(O)c1 [OGP-(Cat)4] (Dihydrocaffeoyl-K(Dihydrocaffeoyl)K(X1)YGFGG-OH) | – | – | 0.32 µM | 160 ± 6 ng/cm^2 | 184 | some adsorption | relatively strongly adsorbed | weakly adsorbed; also recorded: Limited adsorption | weakly adsorbed; also recorded: Limited adsorption | weak adsorption | weakly adsorbed; also recorded: Limited adsorption
– | 5700 ± 200 nM | – | – | – | 0.5 days | – | – | NCCCC[C@H](NC(=O)CCc1ccc(O)c(O)c1)C(=O)N[C@@H](Cc1ccc(O)cc1)C(=O)NCC(=O)N[C@@H](Cc1ccccc1)C(=O)NCC(=O)NCC(=O)O [OGP-Cat] (Dihydrocaffeoyl-KYGFGG-OH) | – | – | 13 µM | 54 ± 4 ng/cm^2 | – | – | – | – | – | – | –

— patent US10765748B2, “Composition and methods for tethering bioactive peptides to metal oxide surfaces” (University of Akron, priority 2014, dated 2020)
